According to patent US20130224110A1, “USE OF ADENOSINE RECEPTOR SIGNALING TO MODULATE PERMEABILITY OF BLOOD-BRAIN BARRIER” (CORNELL UNIVERSITY, priority 2010, published 2013):

Tested on: ICAM-1
Assay: ICAM-1 expression on the choroid plexus after EAE induction
Type: in vivo
Settings: wild type mice after EAE induction, vs DMSO
Description: Anesthetized mice were perfused with PBS, and brains, spleens, and spinal cords were isolated and snap frozen in Tissue Tek-OCT medium. Five μm sections (brains in a sagittal orientation) were affixed to Supefrost/Plus slides (Fisher), fixed in acetone, and stored at −80° C. For immunostaining, slides were thawed and treated with 0.03% H2O2 in PBS to block endogenous peroxidase, blocked with Casein (Vector) in normal goat serum (Zymed), and then incubated with anti-CD45 (YW62.3), anti-CD4 (RM4-5), or anti-ICAM-1 (3E2). Slides were incubated with biotinylated goat anti-rat Ig (Jackson ImmunoResearch) and streptavidin-HRP (Zymed) and developed with an AEC (Red) substrate kit (Zymed) and a hematoxylin counterstain. […]
As CD73 catalyzes the breakdown of AMP to adenosine and ARs are expressed in the CNS (Tsutsui et al., “A1 Adenosine Receptor Upregulation and Activation Attenuates Neuroinflammation and Demyelination in a Model of Multiple Sclerosis,” J. Neurosci. 24:1521-1529 (2004)); Rosi et al., The Influence of Brain Inflammation Upon Neuronal Adenosine A2B Receptors,” J. Neurochem. 86:220-227 (2003), which are hereby incorporated by reference in their entirety), it was next determined if AR signaling is important during EAE progression. […] Since CD73 is highly expressed on the choroid plexus (FIG. 6C), it was next determined if ARs are also expressed on the choroid plexus. […]

SMILES: Nc1nc2c(cnn2CCc2ccccc2)c2nc(-c3ccco3)nn12 [SCH58261, 2-(2-Furanyl)-7-(2-phenylethyl)-7H-pyrazolo[4,3-e][1,2,4]triazolo[1,5-c]pyrimidin-5-amine]
- ICAM-1 up regulation on the choroid plexus: prevented the up regulation of ICAM-1
